Seven compounds from US12559488B2, “Substituted morpholines as ATR kinase inhibitors” (JIANGSU HENGRUI MEDICINE CO., LTD., priority 2019, dated 2026) can be followed below.

The test system of one data set is LoVo cells. The experiment in a line: LoVo cell proliferation assay (intracellular ATP content, CellTiter-Glo). It counts as cell-based. As to conditions: LoVo human colon cancer cells, 3 days incubation; for IC50: 72 h, read-out: IC50 for LoVo cell proliferation inhibition. An excerpt: The following method evaluates the inhibitory effect of the compounds disclosed herein on the proliferation of LoVo cells via IC50 by measuring the intracellular ATP content. The experimental methodology is briefly described as follows:
• 1. LoVo, human colon cancer cells (Cobioer, Nanjing, CBP60032) • 2. Fetal bovine serum (FBS) (Gibco, 10091-148) • 3. F-12K Medium (Gibco, 21127030) • 4. CellTite-Glo reagent (Promega, G7573) • 5. 96-well cell culture plate (Corning, 3903) • 6. Pancreatin (Invitrogen, 25200-072) • 7. Microplate reader (BMG, PHERAstar) • 8. Cell counter (Countstar, Shanghai, IC1000)
LoVo cells were cultured in an F-12K culture medium containing 10% of FBS, and passaged twice or thrice a week in a passage ratio of 1:3 or 1:5. During passage, cells were digested by pancreatin, transferred to a centrifuge tube, and centrifuged for 3 min at 1200 rpm. The supernatant was discarded, and fresh culture medium was added to resuspend the cells. To a 96-well cell culture plate, 90 μL of the cell suspension was added at a density of 3.88×10^4 cells/mL. To peripheral wells of the 96-well plate, only 100 μL of complete medium was added. The plate was incubated in an incubator for 24 h (37° C., 5% CO2).
The test samples were diluted to 2 mM in DMSO and serially 3-fold diluted to the 10th concentration. Blank and control wells were set. 5 μL of the serially diluted test compound solutions was added to 95 μL of fresh medium. 10 μL of the medium containing the compound above was added to the plate. The plate was incubated in an incubator for 3 days (37° C., 5% CO2). 50 μL of CellTiter-Glo reagent was added into each well of the 96-well cell culture plate. The plate was let stand for 5-10 min in the dark at room temperature. The chemiluminescence signals were read by a PHERAstar system, and the data were processed by GraphPad software.

The target in a further data set is T1, ATR enzyme (Homo sapiens, UniProt Q13535).
T1 construct: purchased Eurofins Pharma Discovery Services 14-953-M
T1 sequence (Q13535 whole entry): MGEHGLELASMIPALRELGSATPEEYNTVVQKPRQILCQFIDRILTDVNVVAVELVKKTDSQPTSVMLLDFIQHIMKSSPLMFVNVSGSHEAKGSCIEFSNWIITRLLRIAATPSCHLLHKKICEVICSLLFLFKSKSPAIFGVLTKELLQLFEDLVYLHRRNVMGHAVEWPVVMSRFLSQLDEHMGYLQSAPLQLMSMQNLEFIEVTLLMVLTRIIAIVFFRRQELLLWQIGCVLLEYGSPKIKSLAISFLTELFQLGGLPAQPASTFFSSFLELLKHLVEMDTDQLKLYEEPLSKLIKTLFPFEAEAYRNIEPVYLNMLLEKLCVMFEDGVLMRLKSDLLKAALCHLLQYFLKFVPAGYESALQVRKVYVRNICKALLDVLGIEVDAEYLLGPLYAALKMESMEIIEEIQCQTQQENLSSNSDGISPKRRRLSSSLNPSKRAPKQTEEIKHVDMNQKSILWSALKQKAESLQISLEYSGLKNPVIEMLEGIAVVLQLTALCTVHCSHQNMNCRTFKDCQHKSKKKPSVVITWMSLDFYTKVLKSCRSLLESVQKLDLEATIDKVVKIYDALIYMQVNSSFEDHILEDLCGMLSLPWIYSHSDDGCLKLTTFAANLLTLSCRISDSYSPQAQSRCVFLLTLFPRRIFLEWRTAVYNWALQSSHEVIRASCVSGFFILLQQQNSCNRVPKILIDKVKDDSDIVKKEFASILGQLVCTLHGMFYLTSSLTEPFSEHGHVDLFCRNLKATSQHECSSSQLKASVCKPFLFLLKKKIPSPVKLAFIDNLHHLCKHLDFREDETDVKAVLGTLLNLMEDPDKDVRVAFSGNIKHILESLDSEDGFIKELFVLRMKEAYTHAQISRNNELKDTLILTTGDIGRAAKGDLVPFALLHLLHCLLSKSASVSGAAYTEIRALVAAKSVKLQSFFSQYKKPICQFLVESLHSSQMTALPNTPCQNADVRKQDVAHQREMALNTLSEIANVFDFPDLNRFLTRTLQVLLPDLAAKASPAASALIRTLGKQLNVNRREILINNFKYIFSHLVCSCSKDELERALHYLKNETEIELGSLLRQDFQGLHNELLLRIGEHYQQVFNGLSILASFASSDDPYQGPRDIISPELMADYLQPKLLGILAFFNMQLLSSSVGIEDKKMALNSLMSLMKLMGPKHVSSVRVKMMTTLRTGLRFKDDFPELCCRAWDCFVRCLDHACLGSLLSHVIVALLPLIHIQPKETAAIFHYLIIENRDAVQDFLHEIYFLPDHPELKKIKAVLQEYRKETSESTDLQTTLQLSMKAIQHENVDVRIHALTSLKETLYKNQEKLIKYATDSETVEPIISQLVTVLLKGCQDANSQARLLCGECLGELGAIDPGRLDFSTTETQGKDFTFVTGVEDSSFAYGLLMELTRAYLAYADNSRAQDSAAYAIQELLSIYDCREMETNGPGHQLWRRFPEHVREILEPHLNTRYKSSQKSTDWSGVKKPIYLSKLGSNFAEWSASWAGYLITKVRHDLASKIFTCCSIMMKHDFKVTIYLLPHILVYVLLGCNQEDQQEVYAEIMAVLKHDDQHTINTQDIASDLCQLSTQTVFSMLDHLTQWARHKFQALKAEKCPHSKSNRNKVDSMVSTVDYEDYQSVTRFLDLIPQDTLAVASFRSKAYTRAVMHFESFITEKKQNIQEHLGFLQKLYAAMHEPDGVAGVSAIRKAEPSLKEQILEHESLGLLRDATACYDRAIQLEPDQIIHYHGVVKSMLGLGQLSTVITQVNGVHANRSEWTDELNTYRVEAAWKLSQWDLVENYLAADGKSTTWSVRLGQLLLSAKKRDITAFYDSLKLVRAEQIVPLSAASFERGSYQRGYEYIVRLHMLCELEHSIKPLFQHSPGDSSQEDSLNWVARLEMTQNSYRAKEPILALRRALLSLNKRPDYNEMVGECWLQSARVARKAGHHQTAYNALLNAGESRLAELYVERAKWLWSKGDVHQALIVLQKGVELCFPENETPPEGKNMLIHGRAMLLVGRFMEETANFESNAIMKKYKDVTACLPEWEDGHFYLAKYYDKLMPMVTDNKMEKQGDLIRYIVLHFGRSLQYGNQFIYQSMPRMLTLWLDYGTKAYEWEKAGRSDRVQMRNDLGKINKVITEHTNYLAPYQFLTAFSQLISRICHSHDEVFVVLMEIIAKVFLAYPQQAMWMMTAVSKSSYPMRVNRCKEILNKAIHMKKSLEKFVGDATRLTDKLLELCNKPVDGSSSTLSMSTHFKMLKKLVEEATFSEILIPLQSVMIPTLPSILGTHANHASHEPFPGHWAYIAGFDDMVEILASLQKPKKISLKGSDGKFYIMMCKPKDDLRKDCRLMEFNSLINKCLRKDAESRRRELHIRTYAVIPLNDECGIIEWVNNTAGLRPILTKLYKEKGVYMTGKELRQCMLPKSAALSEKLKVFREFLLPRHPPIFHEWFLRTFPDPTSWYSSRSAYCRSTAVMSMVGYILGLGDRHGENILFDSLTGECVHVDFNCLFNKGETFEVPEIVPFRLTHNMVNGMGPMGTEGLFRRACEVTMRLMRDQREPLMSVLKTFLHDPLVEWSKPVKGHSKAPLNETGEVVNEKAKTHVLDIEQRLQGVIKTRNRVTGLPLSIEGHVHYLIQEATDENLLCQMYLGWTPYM
T1 sequence (Q8WXE1 whole entry partner): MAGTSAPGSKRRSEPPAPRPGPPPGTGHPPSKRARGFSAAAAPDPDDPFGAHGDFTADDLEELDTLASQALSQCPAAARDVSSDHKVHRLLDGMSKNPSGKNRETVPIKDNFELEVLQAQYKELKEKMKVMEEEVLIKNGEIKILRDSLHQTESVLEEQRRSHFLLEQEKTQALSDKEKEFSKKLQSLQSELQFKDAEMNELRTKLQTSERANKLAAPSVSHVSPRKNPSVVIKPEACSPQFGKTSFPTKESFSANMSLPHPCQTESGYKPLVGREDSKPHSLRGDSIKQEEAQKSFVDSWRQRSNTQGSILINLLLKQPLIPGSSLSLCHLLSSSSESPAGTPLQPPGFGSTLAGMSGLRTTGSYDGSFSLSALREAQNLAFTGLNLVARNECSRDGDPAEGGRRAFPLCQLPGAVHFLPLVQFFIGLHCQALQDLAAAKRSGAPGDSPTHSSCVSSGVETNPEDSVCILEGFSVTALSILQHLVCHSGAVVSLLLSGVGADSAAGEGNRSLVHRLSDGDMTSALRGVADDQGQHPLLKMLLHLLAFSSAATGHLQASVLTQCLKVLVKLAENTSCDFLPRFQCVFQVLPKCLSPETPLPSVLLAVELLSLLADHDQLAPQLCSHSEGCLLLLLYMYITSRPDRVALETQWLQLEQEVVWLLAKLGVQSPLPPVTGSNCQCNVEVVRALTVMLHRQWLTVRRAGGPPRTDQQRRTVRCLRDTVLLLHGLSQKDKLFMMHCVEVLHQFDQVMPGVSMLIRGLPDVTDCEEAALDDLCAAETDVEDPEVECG
The experiment in a line: Inhibitory effect on ATR enzyme (phospho-p53 HTRF). The conditions noted are these: for IC50: 1 nM ATR enzyme, 50 nM P53 protein, 7.435 μM ATP, 2 h room temperature, read-out: IC50 for ATR enzyme inhibition; for Maximum inhibition (%) of ATR enzyme: compound serially 3-fold diluted from 1 μM. It counts as biochemical. An excerpt:
The following method was used to determine the inhibitory effect of the compounds disclosed herein on ATR enzyme. The experimental methodology is briefly described as follows:
• 1. ATR enzyme (Eurofins Pharma Discovery Services, 14-953-M) • 2. GST-tag P53 protein (Eurofins Pharma Discovery Services, 14-952-M) • 3. 384-well plate (Thermo Scientific, 267462) • 4. U-shaped bottom 96-well plate (Corning, 3795) • 5. MAb Anti-phospho p53-Eu cryptate (Cisbio, 61P08KAE) • 6. MAb Anti GST-d2 (Cisbio, 61GSTDLF) • 7. ATP solution (Promega, V916B) • 8. EDTA (Thermo Scientific, AM9260G) • 9. HEPES (Gibco, 15630-080) • 10. Microplate reader (BMG, PHERAsta)
1 nM ATR enzyme, 50 nM P53 protein, 7.435 μM ATP and small molecule compounds of different concentrations (serially 3-fold diluted from 1 μM to the 11th concentration) were mixed and incubated at room temperature for 2 h. A terminating buffer (12.5 mM HEPES, 250 mM EDTA) was added. The mixture was well mixed before 0.42 ng/well of mAb anti-phospho p53-Eu cryptate and 25 ng/well of mAb anti GST-d2 were added. The mixture was incubated overnight at room temperature, and the fluorescence signals at 620 nm and 665 nm were detected using a PHERAstar system. Data were processed using GraphPad software.

Data set [1] in a line: Pharmacokinetic study in rats after intragastric administration. In kind it is in vivo. As to conditions: both sexes, Sprague-Dawley (SD), rat, plasma, po, 2 mg/kg; for Vd/F: read-out: Apparent volume of distribution Vz/F; for AUC: read-out: Area under curve AUC; for CL/F: read-out: Clearance CL/F; for half-life: read-out: Half life T1/2 (converted); for Cmax: read-out: Plasma concentration Cmax; for MRT: read-out: Retention time MRT. Here is the method:
The plasma concentration of the compounds of Examples 1, 2 and 3 in rats after intragastric administration were measured by LC/MS/MS. The pharmacokinetic performance in rats of the compounds disclosed herein was studied and their pharmacokinetic profile was evaluated.
The compounds of Examples 1, 2 and 3.
12 healthy adult SD rats (half male and half female; purchased from Vital River) were evenly divided into 3 groups of 4.
A certain amount of the compound was added to a mixed solvent containing 5% of DMSO, 5% of Tween 80 and 90% of normal saline to obtain a colorless and clear solution.
SD rats were intragastrically administered with the compounds after fasting overnight, at a dose of 2 mg/kg and a volume of 10.0 mL/kg.
Rats were intragastrically administered with the compounds of Examples 1, 2 and 3. 0.2 mL of blood was collected from the orbit pre-dose and at 0.25, 0.5, 1.0, 2.0, 4.0, 6.0, 8.0, 11.0 and 24.0 h post-does. The blood samples were transferred to EDTA-K2kk anticoagulation vacutainers, centrifuged at 4° C. and 11000 rpm for 5 min to separate plasma. The plasma samples were stored at −20° C. The mice were fed 2 h after administration.
The plasma concentration of the compounds in rats after intragastric administration was determined: 25 μL of rat plasma at each time point post-dose was mixed with 50 μL of internal standard and 175 μL of acetonitrile; the mixture was vortexed 5 min, and centrifuged for 10 min at 4000 rpm. 1 μL of supernatant was taken for LC/MS/MS analysis.

Consider `C[C@@H]1COCCN1c1cc(C(C)(C)O)c2c(n1)c(-c1cc[nH]n1)nn2C` [Comparative Example 1, (R)-2-(1-methyl-5-(3-methylmorpholinyl)-3-(1H-pyrazol-3-yl)-1H-pyrazolo[4,3-b]pyridin-7-yl)propan-2-ol, reference compound], for which, in the data set with LoVo cells, the IC50 came to 316 nM and the “Maximum inhibition (%) of LoVo cell proliferation” value is 92%. Besides, at ATR enzyme, the IC50 is 73 nM and the “Maximum inhibition (%) of ATR enzyme” value amounted to 97%.

As to `C[C@@H]1COCCN1c1cc(C(C)(C)C#N)c2c(n1)c(-c1cc[nH]n1)nn2C` [Example 1, (R)-2-methyl-2-(1-methyl-5-(3-methylmorpholinyl)-3-(1H-pyrazol-3-yl)-1H-pyrazolo[4,3-b]pyridin-7-yl)propanenitrile], the IC50 with LoVo cells is 43 nM.

For the compound `C[C@@H]1COCCN1c1cc(C2(C#N)CC2)c2c(n1)c(-c1cc[nH]n1)nn2C` [Example 2, (R)-1-(1-methyl-5-(3-methylmorpholinyl)-3-(1H-pyrazol-3-yl)-1H-pyrazolo[4,3-b]pyridin-7-yl)cyclopropanenitrile], in data set [1], the Vd/F was determined as 7.8 ± 6.13 L/kg, the AUC turned out to be 1590 ± 1390 ng·h/mL, the CL/F was 51.7 ± 49.5 mL/min/kg and the half-life is 154 ± 83.4 min. In data set [1], the Cmax was found to be 309 ± 219 ng/mL and the mean residence time MRT amounted to 3.99 ± 2.26 h. Also, in the data set on LoVo cells, the IC50 was found to be 75 nM and the “Maximum inhibition (%) of LoVo cell proliferation” value is 90%. In addition, on ATR enzyme, the IC50 came to 9 nM and the “Maximum inhibition (%) of ATR enzyme” value was determined as 100%.

Consider `C[C@@H]1COCCN1c1cc(-c2ccnn2C)c2c(n1)c(-c1cc[nH]n1)nn2C` [Example 3, (R)-3-methyl-4-(1-methyl-7-(1-methyl-1H-pyrazol-5-yl)-3-(1H-pyrazol-3-yl)-1H-pyrazolo[4,3-b]pyridin-5-yl) morpholine], for which, in data set [1], the Vd/F turned out to be 2.44 ± 0.448 L/kg, the area under the curve (AUC) amounted to 2710 ± 807 ng·h/mL, the CL/F turned out to be 13.1 ± 3.7 mL/min/kg and the half-life is 134 ± 31.8 min. Further, in data set [1], the Cmax was 674 ± 86.7 ng/mL and the MRT was found to be 3.26 ± 0.67 h. In addition, in the data set with LoVo cells, the IC50 amounted to 124 nM and the “Maximum inhibition (%) of LoVo cell proliferation” value was 87%. For the same compound, on ATR enzyme, the IC50 was determined as 15 nM and the “Maximum inhibition (%) of ATR enzyme” value came out at 100%.

Regarding `CCn1nc(-c2cc[nH]n2)c2nc(N3CCOC[C@H]3C)cc(C(C)(C)C#N)c21` [Example 4, (R)-2-(1-ethyl-5-(3-methylmorpholinyl)-3-(1H-pyrazol-3-yl)-1H-pyrazolo[4,3-b]pyridin-7-yl)-2-methylpropanenitrile], in the data set on LoVo cells, the IC50 was 64 nM and the “Maximum inhibition (%) of LoVo cell proliferation” value is listed as 89%. For the same compound, on ATR enzyme, the IC50 turned out to be 6 nM and the “Maximum inhibition (%) of ATR enzyme” value was determined as 100%.

In the case of `CCn1nc(-c2cc[nH]n2)c2nc(N3CCOC[C@H]3C)cc(C3(C#N)CC3)c21` [Example 5, (R)-1-(1-ethyl-5-(3-methylmorpholinyl)-3-(1H-pyrazol-3-yl)-1H-pyrazolo[4,3-b]pyridin-7-yl) cyclopropanenitrile], in the data set with LoVo cells, the IC50 is 100 nM and the “Maximum inhibition (%) of LoVo cell proliferation” value was 93%. Also, at ATR enzyme, the IC50 turned out to be 8 nM and the “Maximum inhibition (%) of ATR enzyme” value turned out to be 100%.

For `C[C@@H]1COCCN1c1cc(C(C)(C)C#N)c2[nH]nc(-c3cc[nH]n3)c2n1` [Example 6, (R)-2-methyl-2-(5-(3-methylmorpholinyl)-3-(1H-pyrazol-3-yl)-1H-pyrazolo[4,3-b]pyridin-7-yl)propanenitrile], in the data set with LoVo cells, the IC50 was 55 nM and the “Maximum inhibition (%) of LoVo cell proliferation” value was 95%. At ATR enzyme, the IC50 is 3 nM and the “Maximum inhibition (%) of ATR enzyme” value is reported as 100%.
